{
  "source": "patent US20230274799A1",
  "about": "“SYSTEMS AND METHODS FOR PATIENT STRATIFICATION AND IDENTIFICATION OF POTENTIAL BIOMARKERS” (Berg LLC, priority 2016, published 2023)",
  "key": {"[1]": {"assay": "Pharmacokinetics of Coenzyme Q10 in plasma during and after 144-hour continuous IV infusion", "format": "in vivo, human", "parameters": "Coenzyme Q10 concentration in plasma, Mean ± SD: unit not given here", "experimental": "Pharmacokinetics of Coenzyme Q10 was measured in the patients at time zero and at several time points during and after the 144-hour continuous intravenous (IV) infusion with Coenzyme Q10."}, "solid tumors": {"test_system": "solid tumors", "assay": "Tumor response evaluation in Phase I trial", "format": "in vivo, human", "conditions": "Sixteen of 66 patients", "experimental": "Tumor response was evaluated at week 2 and then after every 2 cycles. Sixteen of 66 patients (24%) maintained a minimum of Stable Disease for >4 cycles. Tumor response data was used to stratify the patients into “overall clinical benefit” or “no clinical benefit” groups."}},
  "data": [
    {"smiles": "COC1=C(OC)C(=O)C(C/C=C(\\C)CC/C=C(\\C)CC/C=C(\\C)CC/C=C(\\C)CC/C=C(\\C)CC/C=C(\\C)CC/C=C(\\C)CC/C=C(\\C)CC/C=C(\\C)CCC=C(C)C)=C(C)C1=O", "note": "[Coenzyme Q10]", "values": [
      {"measurement": "Coenzyme Q10 concentration in plasma, Mean ± SD", "setting": "[1]; 274 mg/kg/week, Arm 1, n = 3 (so in the source), time 143.5 hr", "value": "510 ± 259"},
      {"measurement": "Coenzyme Q10 concentration in plasma, Mean ± SD", "setting": "[1]; 274 mg/kg/week, Arm 1, n = 3 (so in the source), time 146 hr", "value": "486 ± 254"},
      {"measurement": "Coenzyme Q10 concentration in plasma, Mean ± SD", "setting": "[1]; 274 mg/kg/week, Arm 1, n = 3 (so in the source), time 148 hr", "value": "380 ± 219"},
      {"measurement": "Coenzyme Q10 concentration in plasma, Mean ± SD", "setting": "[1]; 274 mg/kg/week, Arm 1, n = 4 (footnote e), time 96 hr", "value": "407 ± 195^e"},
      {"measurement": "Coenzyme Q10 concentration in plasma, Mean ± SD", "setting": "[1]; 274 mg/kg/week, Arm 1, n = 4 (footnote e), time 140 hr", "value": "517 ± 185^e"},
      {"measurement": "Coenzyme Q10 concentration in plasma, Mean ± SD", "setting": "[1]; 274 mg/kg/week, Arm 1, n = 4 (footnote e), time 142 hr", "value": "528 ± 179^e"},
      {"measurement": "Coenzyme Q10 concentration in plasma, Mean ± SD", "setting": "[1]; 274 mg/kg/week, Arm 1, n = 5 (footnote d), time 4 hr", "value": "181 ± 56^d"},
      {"measurement": "Coenzyme Q10 concentration in plasma, Mean ± SD", "setting": "[1]; 274 mg/kg/week, Arm 1, n = 5 (footnote d), time 71.5 hr", "value": "265 ± 188^d"},
      {"measurement": "Coenzyme Q10 concentration in plasma, Mean ± SD", "setting": "[1]; 274 mg/kg/week, Arm 1, n = 5 (footnote d), time 146 hr", "value": "460 ± 249^d"},
      {"measurement": "Coenzyme Q10 concentration in plasma, Mean ± SD", "setting": "[1]; 274 mg/kg/week, Arm 1, n = 5 (footnote d), time 148 hr", "value": "397 ± 230^d"},
      {"measurement": "Coenzyme Q10 concentration in plasma, Mean ± SD", "setting": "[1]; 274 mg/kg/week, Arm 1, n = 6, time 0 hr", "value": 0},
      {"measurement": "Coenzyme Q10 concentration in plasma, Mean ± SD", "setting": "[1]; 274 mg/kg/week, Arm 1, n = 6, time 1 hr", "value": "188 ± 46"},
      {"measurement": "Coenzyme Q10 concentration in plasma, Mean ± SD", "setting": "[1]; 274 mg/kg/week, Arm 1, n = 6, time 2 hr", "value": "190 ± 38"},
      {"measurement": "Coenzyme Q10 concentration in plasma, Mean ± SD", "setting": "[1]; 274 mg/kg/week, Arm 1, n = 6, time 24 hr", "value": "287 ± 189"},
      {"measurement": "Coenzyme Q10 concentration in plasma, Mean ± SD", "setting": "[1]; 274 mg/kg/week, Arm 1, n = 6, time 73 hr", "value": "367 ± 313"},
      {"measurement": "Coenzyme Q10 concentration in plasma, Mean ± SD", "setting": "[1]; 274 mg/kg/week, Arm 1, n = 6, time 74 hr", "value": "387 ± 332"},
      {"measurement": "Coenzyme Q10 concentration in plasma, Mean ± SD", "setting": "[1]; 274 mg/kg/week, Arm 1, n = 6, time 143.5 hr", "value": "560 ± 246"},
      {"measurement": "Coenzyme Q10 concentration in plasma, Mean ± SD", "setting": "[1]; 342 mg/kg/week, Arm 1, n = 4 (footnote e), time 96 hr", "value": "411 ± 189^e"},
      {"measurement": "Coenzyme Q10 concentration in plasma, Mean ± SD", "setting": "[1]; 342 mg/kg/week, Arm 1, n = 4 (footnote e), time 140 hr", "value": "695 ± 414^e"},
      {"measurement": "Coenzyme Q10 concentration in plasma, Mean ± SD", "setting": "[1]; 342 mg/kg/week, Arm 1, n = 4 (footnote e), time 143.5 hr", "value": "789 ± 161^e"},
      {"measurement": "Coenzyme Q10 concentration in plasma, Mean ± SD", "setting": "[1]; 342 mg/kg/week, Arm 1, n = 4 (footnote e), time 146 hr", "value": "679 ± 141^e"},
      {"measurement": "Coenzyme Q10 concentration in plasma, Mean ± SD", "setting": "[1]; 342 mg/kg/week, Arm 1, n = 4 (footnote e), time 148 hr", "value": "596 ± 143^e"},
      {"measurement": "Coenzyme Q10 concentration in plasma, Mean ± SD", "setting": "[1]; 342 mg/kg/week, Arm 1, n = 5, time 0 hr", "value": 0},
      {"measurement": "Coenzyme Q10 concentration in plasma, Mean ± SD", "setting": "[1]; 342 mg/kg/week, Arm 1, n = 5, time 1 hr", "value": "289 ± 59"},
      {"measurement": "Coenzyme Q10 concentration in plasma, Mean ± SD", "setting": "[1]; 342 mg/kg/week, Arm 1, n = 5, time 2 hr", "value": "297 ± 81"},
      {"measurement": "Coenzyme Q10 concentration in plasma, Mean ± SD", "setting": "[1]; 342 mg/kg/week, Arm 1, n = 5, time 4 hr", "value": "304 ± 90"},
      {"measurement": "Coenzyme Q10 concentration in plasma, Mean ± SD", "setting": "[1]; 342 mg/kg/week, Arm 1, n = 5, time 24 hr", "value": "463 ± 274"},
      {"measurement": "Coenzyme Q10 concentration in plasma, Mean ± SD", "setting": "[1]; 342 mg/kg/week, Arm 1, n = 5, time 71.5 hr", "value": "563 ± 188"},
      {"measurement": "Coenzyme Q10 concentration in plasma, Mean ± SD", "setting": "[1]; 342 mg/kg/week, Arm 1, n = 5, time 73 hr", "value": "514 ± 205"},
      {"measurement": "Coenzyme Q10 concentration in plasma, Mean ± SD", "setting": "[1]; 342 mg/kg/week, Arm 1, n = 5, time 74 hr", "value": "537 ± 219"},
      {"measurement": "Coenzyme Q10 concentration in plasma, Mean ± SD", "setting": "[1]; 342 mg/kg/week, Arm 1, n = 5, time 142 hr", "value": "699 ± 290"},
      {"measurement": "Mean plasma concentrations of Coenzyme Q10, comparison of doses", "setting": "[1]; Arm 1 (monotherapy), exception: 96-hour sampling time, similar", "value": "higher for the 342 mg/kg/week dose than for the 274 mg/kg/week dose"},
      {"measurement": "Effect of concomitant chemotherapy on the pharmacokinetics of Coenzyme Q10", "setting": "[1]; Arm 1 vs Arm 2 at any of the dose levels", "value": "no apparent effect"},
      {"measurement": "Plasma profiles of Coenzyme Q10, comparison of doses", "setting": "[1]; Arm 2 (chemotherapy combination therapy), first 72 hours of the infusion, distinctly higher during the second 72 hours", "value": "slightly higher for the 274 mg/kg/week dose than for the 220 mg/kg/week dose"},
      {"measurement": "Patients who maintained a minimum of Stable Disease for >4 cycles", "setting": "solid tumors", "value": 24, "unit": "%"}
    ]}
  ]
}
